pEC50: −log10 of the molar value.
Assays:
Type in all cases: cell-based
Conditions in all cases: Hepatitis C virus
[1] = test system: HCV genotype 1a replicon, NS5A Q30R H58D; experiment: Transient replication assay, GT1a NS5A Q30R H58D
[2] = test system: GT2a-6a-EUKH2 replicon; experiment: Stable replicon assay, comparison to daclatasvir, GT2a-6a-EUKH2
Text: (§1) The plasmid pSG-hRlucNeo-JFH1 was generated from pSG-Neo-JFH1 (Kato et al. 2003, Gastroentrology 125:1808-1817). A fragment containing the JFH-1 5′ NTR-hRluc-Neo gene and two unique restriction sites (AgeI and PmeI) was synthesized (Integrated DNA Technologies, Coralville, Iowa). The resulting plasmid was digested with AgeI and PmeI and the excised fragment (5′NTR-hRluc-Neo) was ligated into pSG-Neo-JFH1 digested with the same enzymes to generate pSG-hRlucNeo-JFH1. To allow expression of heterologous NS5A sequences, an NS5A shuttle vector was generated from pSG-Neo-JFH1, in which the entire coding sequence of NS5A plus the first eight codons of NS5B were replaced with an AfeI restriction site. This was done by Infusion cloning (Clontech, Mountain View, Calif.) from two PCR products that were generated using pSG-Neo-JFH1 as a template and the following primer pairs:
To express GT6a NS5A chimeric sequences a JFH1-based N-terminal NS5A (NS5A residues 2-107) shuttle vector was constructed by Infusion cloning from two PCR products that were generated using pSG-Neo-JFH1 as a template and the following primers: […]
Purified PCR products were inserted into an NsiI/SnaBI digested pSG-Neo-JFH1 vector by Infusion cloning following the manufacturer's instructions to generate pSG-Neo-JFH1-Nterm_5Ashuttle. […]

[3] = test system: HCV genotype 1a replicon, NS5A L31M; experiment: Transient replication assay, GT1a NS5A L31M
[4] = test system: HCV genotype 1a replicon, NS5A M28V Q30R; experiment: Transient replication assay, GT1a NS5A M28V Q30R
[5] = test system: GT2a-JFH replicon; experiment: Stable replicon assay, comparison to daclatasvir, GT2a-JFH
Text: as §1, with “pairs: […]” for “pairs:”
Stable HCV replicon cell lines were grown in complete media (Dulbecco's modified Eagle medium [DMEM], 2 mM L-glutamine, 0.1 mM essential amino acids, 1 mM sodium pyruvate, 10% fetal bovine serum) with the addition 500 μg/ml […] (G418). […] For stable and transient replicon assays, luciferase activity of compound-treated cells was measured relative to DMSO-treated cells after 72 h incubation using RENILLA-GLO™ Luciferase Assay (Promega). […]

[6] = test system: HCV genotype 1a replicon, NS5A Q30K; experiment: Transient replication assay, GT1a NS5A Q30K

`COC(=O)N[C@H](C(=O)N1CCC[C@H]1c1nc(-c2ccc(-c3ccc(-c4c[nH]c([C@@H]5CCCN5C(=O)[C@@H](NC(=O)OC)C(C)C)n4)cc3)cc2)c[nH]1)C(C)C` [Daclatasvir, reference compound] showed a pEC50 [1] of 6.08, a pEC50 [2] of 9.84 and a pEC50 [3] of 9.17. The pEC50 [4] was 8.92, the pEC50 [5] was 11.10 and the pEC50 [6] was 8.10.

With `COC(=O)N[C@H](C(=O)N1C[C@]2(CCCOC2)C[C@H]1c1ncc(-c2ccc(-c3ccc4c(ccc5nc([C@@H]6C[C@@H]7CCC[C@@H]7N6C(=O)[C@@H](NC(=O)OC)C(C)C)[nH]c54)c3)cc2)[nH]1)C(C)C` [Compound 16] the pEC50 [1] was 8.55, the pEC50 [2] was 10.85 and the pEC50 [3] was 10.97. For the same compound, the pEC50 [4] was 9.80, the pEC50 [5] was 11.40 and the pEC50 [6] was 10.30.

— patent US10407445B2, “Hepatitis C virus inhibitors” (ENANTA PHARMACEUTICALS, INC., priority 2013, dated 2019)
